From paper PMC10583239 (CPT: Pharmacometrics & Systems Pharmacology, 2023)
Marks after values point to notes of the source that are not given here.

Legend:
[1] = tested on: human colon adenocarcinoma clone 2 (Caco‐2); assay: Caco‐2 apparent permeability; assay type: in vitro ADME; details: Caco‐2 cell line
[2] = molecular target: T1, CYP2C8 (Homo sapiens, UniProt P10632); assay: Metabolic stability in recombinant human CYP2C8 with NADPH; assay type: in vitro ADME; details: CYP2C8 share of CYP metabolism, scaled by abundance and ISEF
T1 sequence (P10632 1-490): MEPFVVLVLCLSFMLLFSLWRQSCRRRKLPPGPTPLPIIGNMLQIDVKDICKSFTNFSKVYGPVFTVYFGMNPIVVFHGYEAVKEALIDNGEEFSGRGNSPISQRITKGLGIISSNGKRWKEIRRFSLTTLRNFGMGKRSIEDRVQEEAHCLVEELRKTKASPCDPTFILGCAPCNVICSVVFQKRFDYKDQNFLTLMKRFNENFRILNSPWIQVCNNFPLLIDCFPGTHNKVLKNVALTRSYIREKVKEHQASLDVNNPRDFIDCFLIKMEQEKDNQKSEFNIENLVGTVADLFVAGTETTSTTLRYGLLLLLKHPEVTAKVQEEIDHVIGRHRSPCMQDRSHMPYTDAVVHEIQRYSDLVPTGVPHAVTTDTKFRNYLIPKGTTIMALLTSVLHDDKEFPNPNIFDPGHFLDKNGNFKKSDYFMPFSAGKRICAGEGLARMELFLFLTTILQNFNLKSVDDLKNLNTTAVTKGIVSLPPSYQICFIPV

[3] = molecular target: T2, CYP2D6 (Homo sapiens, UniProt P10635); assay: Metabolic stability in recombinant human CYP2D6 with NADPH; assay type: in vitro ADME; details: CYP2D6 share of CYP metabolism, scaled by abundance and ISEF
[4] = molecular target: CYP3A4 (Homo sapiens, UniProt P08684); assay: Metabolic stability in recombinant human CYP3A4 with NADPH; assay type: in vitro ADME; details: CYP3A4 share of CYP metabolism, scaled by abundance and ISEF
[5] = molecular target: recombinant human CYP3A5 (Homo sapiens, UniProt P20815); assay: Metabolic stability in recombinant human CYP3A5 with NADPH; assay type: in vitro ADME; details: CYP3A5 share of CYP metabolism, scaled by abundance and ISEF
[6] = molecular target: T2, CYP2D6; assay: CYP2D6 inhibition in human liver microsomes; assay type: in vitro ADME
[7] = tested on: Human plasma protein; assay: Human plasma protein binding; assay type: in vitro ADME; details: PBPK input
[8] = Human liver microsomal protein binding; assay type: in vitro ADME; details: human liver microsomes
[9] = Blood‐to‐plasma ratio; assay type: in vitro ADME; details: PBPK input
[10] = molecular target: T3, CYP1A2 (Homo sapiens, UniProt P05177); details: main text summary
T3 sequence (P05177 1-516): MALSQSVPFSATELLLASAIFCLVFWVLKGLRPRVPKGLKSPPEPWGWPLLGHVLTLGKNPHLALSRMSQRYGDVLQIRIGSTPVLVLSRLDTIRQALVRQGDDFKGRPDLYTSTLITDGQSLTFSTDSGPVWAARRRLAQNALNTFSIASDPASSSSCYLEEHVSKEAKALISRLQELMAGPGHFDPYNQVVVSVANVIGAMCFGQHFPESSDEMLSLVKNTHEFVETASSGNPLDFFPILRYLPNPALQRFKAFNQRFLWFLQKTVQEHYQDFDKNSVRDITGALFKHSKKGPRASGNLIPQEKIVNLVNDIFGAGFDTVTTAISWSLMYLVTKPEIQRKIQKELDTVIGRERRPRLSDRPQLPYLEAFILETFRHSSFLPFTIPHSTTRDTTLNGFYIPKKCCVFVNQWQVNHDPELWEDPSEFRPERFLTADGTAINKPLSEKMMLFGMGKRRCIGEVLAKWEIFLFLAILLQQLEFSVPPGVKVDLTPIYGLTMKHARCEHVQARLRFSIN

[11] = molecular target: T4, CYP2B6 (Homo sapiens, UniProt P20813); details: main text summary
T4 sequence (P20813 1-491): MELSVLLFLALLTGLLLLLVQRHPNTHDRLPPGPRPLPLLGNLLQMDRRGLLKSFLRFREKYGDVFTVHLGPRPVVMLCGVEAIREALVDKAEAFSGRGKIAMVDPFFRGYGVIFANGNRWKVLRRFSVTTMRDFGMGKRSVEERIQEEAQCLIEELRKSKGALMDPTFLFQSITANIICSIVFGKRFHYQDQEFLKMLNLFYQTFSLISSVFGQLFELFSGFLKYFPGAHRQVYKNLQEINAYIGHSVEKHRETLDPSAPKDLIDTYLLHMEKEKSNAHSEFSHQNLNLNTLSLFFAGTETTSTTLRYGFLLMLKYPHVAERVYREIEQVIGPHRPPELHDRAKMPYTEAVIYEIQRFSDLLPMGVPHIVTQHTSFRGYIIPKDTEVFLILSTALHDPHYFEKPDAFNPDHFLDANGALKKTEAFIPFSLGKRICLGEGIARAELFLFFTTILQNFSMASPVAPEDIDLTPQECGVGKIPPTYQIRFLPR

[12] = molecular target: T5, CYP2C9 (Homo sapiens, UniProt P11712); details: main text summary
[13] = phase I FIH study ref 7; cited from earlier work
[14] = radiolabeled pomotrelvir ref 16; cited from earlier work
[15] = tested on: CYP2B6; assay: in vitro; details: human
[16] = molecular target: T3, CYP1A2; assay: biochemical
[17] = molecular target: T5, CYP2C9; assay: biochemical
[18] = Clinical DDI cohorts: pomotrelvir with ritonavir 100 mg
[19] = (20 mg PBI + 100 mg RTV, SD)/(100 mg POMO, SD)
[20] = (50 mg PBI + 100 mg RTV, Day1)/(100 mg POMO, SD)
[21] = (50 mg PBI + 100 mg RTV, Day5)/(100 mg POMO, SD), AUClast/Dose over AUCinf/Dose
[22] = (50 mg PBI + 100 mg RTV, Day10)/(100 mg POMO, SD), AUClast/Dose over AUCinf/Dose

T2 sequence (P10635 whole entry): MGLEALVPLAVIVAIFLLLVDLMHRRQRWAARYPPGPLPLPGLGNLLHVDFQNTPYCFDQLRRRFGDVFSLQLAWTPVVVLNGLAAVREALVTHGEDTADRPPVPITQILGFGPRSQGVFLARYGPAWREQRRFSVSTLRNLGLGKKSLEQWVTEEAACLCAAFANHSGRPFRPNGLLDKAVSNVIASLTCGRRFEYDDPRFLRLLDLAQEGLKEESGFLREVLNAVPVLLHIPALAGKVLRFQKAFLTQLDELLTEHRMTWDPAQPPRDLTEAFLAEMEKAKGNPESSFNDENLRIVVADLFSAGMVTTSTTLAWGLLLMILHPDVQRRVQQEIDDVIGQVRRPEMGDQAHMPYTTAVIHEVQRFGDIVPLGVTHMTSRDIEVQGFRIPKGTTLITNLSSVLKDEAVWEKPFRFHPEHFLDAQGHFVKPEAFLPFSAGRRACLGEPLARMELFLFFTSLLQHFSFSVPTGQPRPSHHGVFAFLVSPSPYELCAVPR
T5 sequence (P11712 whole entry): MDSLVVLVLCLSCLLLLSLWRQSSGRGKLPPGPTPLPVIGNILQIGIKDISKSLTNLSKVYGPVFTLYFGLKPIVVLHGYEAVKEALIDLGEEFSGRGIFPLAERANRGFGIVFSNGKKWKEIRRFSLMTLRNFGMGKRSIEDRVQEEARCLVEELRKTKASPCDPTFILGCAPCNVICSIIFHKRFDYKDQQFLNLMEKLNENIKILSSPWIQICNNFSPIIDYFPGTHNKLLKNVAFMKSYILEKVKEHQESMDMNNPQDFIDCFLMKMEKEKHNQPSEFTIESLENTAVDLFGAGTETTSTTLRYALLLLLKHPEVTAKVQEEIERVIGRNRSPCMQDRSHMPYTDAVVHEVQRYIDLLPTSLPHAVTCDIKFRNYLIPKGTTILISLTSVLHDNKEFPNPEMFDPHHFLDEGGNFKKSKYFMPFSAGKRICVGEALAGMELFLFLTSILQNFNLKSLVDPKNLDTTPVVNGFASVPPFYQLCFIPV
recombinant human CYP3A5, sequence (P20815 whole entry): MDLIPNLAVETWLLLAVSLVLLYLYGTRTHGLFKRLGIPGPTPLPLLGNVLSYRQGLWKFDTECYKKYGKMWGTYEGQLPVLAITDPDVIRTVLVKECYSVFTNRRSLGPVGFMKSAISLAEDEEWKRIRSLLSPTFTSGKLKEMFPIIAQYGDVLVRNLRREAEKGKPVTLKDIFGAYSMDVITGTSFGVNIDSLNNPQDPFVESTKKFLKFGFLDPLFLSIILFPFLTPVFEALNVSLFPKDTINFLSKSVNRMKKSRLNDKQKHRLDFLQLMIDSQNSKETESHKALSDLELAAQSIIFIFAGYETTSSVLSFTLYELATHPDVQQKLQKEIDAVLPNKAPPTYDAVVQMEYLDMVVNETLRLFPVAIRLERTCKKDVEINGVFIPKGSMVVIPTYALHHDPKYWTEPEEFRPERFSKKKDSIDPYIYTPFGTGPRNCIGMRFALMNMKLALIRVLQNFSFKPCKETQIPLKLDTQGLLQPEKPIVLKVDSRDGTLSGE
CYP3A4, sequence (P08684 whole entry): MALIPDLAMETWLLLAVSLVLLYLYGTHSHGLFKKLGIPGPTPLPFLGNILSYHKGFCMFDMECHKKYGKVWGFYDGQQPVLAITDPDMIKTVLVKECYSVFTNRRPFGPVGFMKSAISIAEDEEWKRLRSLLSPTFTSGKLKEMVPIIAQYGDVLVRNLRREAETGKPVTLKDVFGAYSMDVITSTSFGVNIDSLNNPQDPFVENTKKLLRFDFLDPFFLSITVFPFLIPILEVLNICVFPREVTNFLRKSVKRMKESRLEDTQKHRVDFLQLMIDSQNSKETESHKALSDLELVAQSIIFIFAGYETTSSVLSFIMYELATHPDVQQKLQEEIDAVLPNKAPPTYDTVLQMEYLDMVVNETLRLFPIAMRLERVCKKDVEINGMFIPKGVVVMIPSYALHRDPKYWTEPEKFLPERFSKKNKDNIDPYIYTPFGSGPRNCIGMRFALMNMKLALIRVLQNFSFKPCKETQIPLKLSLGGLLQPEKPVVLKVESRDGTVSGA

efflux ratio [1]: large
Relative Contribution (fm) [2]: 11%
Relative Contribution (fm) [3]: negligible
Relative Contribution (fm) [4]: 88%
Relative Contribution (fm) [5]: negligible
Ki [6]: 25.4 µM
inhibitory effect on CYP2D6 in vitro (in words) ([6]; main text summary): No inhibitory effect
Main binding protein [7]: HSA
fraction unbound [8]: 0.85
B:P [9]: 0.93
inhibitory effect on CYP1A2 in vitro (in words) [10]: weak to moderate inhibition
inhibitory effect on CYP2B6 in vitro (in words) [11]: No inhibitory effect
inhibitory effect on CYP2C9 in vitro (in words) [12]: weak to moderate inhibition
contribution of nonhepatic, presystemic hydrolysis to apparent clearance (following oral dosing, thought to contribute): ~ 50%
CL/F (mean apparent oral clearance) (oral dose of 300 mg administered with food (FIH study)): 33.19 L/h
EC50 at 72 h [15]: 4.84 µM
Ki [16]: 9.04 µM
Ki [17]: 12.3 µM
change of dose‐normalized systemic exposure in the presence of ritonavir ([18]; 100 mg ritonavir, all cohorts and parameters): 0.92–1.54 fold
AUCinf/dose GMR (90% CI) [18, 19]: 0.92 (0.67, 1.26)
AUClast/dose GMR (90% CI) [18, 19]: 1.06 (0.68, 1.65)
Cmax/dose GMR (90% CI) [18, 19]: 0.97 (0.76, 1.22)
AUCinf/dose GMR (90% CI) [18, 20]: 1.54 (1.13, 2.1)
AUClast/dose GMR (90% CI) [18, 20]: 1.38 (1.08, 1.76)
Cmax/dose GMR (90% CI) [18, 20]: 1.46 (1.16, 1.84)
Cmax/dose GMR (90% CI) ([18]; (50 mg PBI + 100 mg RTV, Day5)/(100 mg POMO, SD)): 1.3 (0.9, 1.89)
AUCinf/dose GMR (90% CI) [18, 21]: 1.34 (0.96, 1.87) ^a
AUClast/dose GMR (90% CI) [18, 21]: 1.34 (0.96, 1.87) ^a
Cmax/dose GMR (90% CI) ([18]; (50 mg PBI + 100 mg RTV, Day10)/(100 mg POMO, SD)): 1.41 (1.05, 1.91)
AUCinf/dose GMR (90% CI) [18, 22]: 1.37 (1.05, 1.79) ^b
AUClast/dose GMR (90% CI) [18, 22]: 1.37 (1.05, 1.79) ^b
increase in exposure upon coadministration with ritonavir ([18]; single or multiple doses): < 50%
SMILES: N#C[C@H](C[C@@H]1CCCNC1=O)NC(=O)[C@H](CC1CC1)NC(=O)c1cc2cccc(Cl)c2[nH]1 [Pomotrelvir, pomotrelvir]
oral bioavailability [13]: good
tolerability [13]: well tolerated
major route of metabolism and clearance [14]: nonhepatic hydrolysis
urinary excretion of intact drug [14]: Minimal
